Assay results from ChEMBL document CHEMBL1201862, “PubChem BioAssay data set” (2004).
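Growth conditions: 96-well plates. Treatment: test compound, 48 hours, 5 concentrations. Analysis: linear interpolation between bracketing concentrations; unreached endpoints set to highest concentration. GI50 = concentration required for 50% inhibition of growth.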 Activity calls are given as the source filed them. Cut-off read from the data, not from the text of the source: active = GI50 up to about 1.1 µM and inactive = higher.

Experiments:
Experiment in all cases: NCI anticancer screen, dose series, 48 h
786-0 = tested on: 786-0
A498 = tested on: A498
A549 = tested on: A549
ACHN = tested on: ACHN
CAKI-1 = tested on: CAKI-1
CCRF-CEM = tested on: CCRF-CEM
DLD-1 = tested on: DLD-1
DMS-114 = tested on: DMS-114
DMS-273 = tested on: DMS-273
EKVX = tested on: EKVX
HL-60 = tested on: HL-60
HOP-18 = tested on: HOP-18
HOP-62 = tested on: HOP-62
HOP-92 = tested on: HOP-92
HT-29 = tested on: HT-29
IGROV-1 = tested on: IGROV-1
K562 = tested on: K562
KM12 = tested on: KM12
LOX IMVI = tested on: LOX IMVI
LXFL 529 = tested on: LXFL 529
MOLT-4 = tested on: MOLT-4
Malme-3M = tested on: Malme-3M
NCI-H23 = tested on: NCI-H23
NCI-H460 = tested on: NCI-H460
NCI-H522 = tested on: NCI-H522
OVCAR-4 = tested on: OVCAR-4
OVCAR-8 = tested on: OVCAR-8
RXF 393 = tested on: RXF 393
RXF 631 = tested on: RXF 631
SF-268 = tested on: SF-268
SF-295 = tested on: SF-295
SF-539 = tested on: SF-539
SK-MEL-28 = tested on: SK-MEL-28
SK-MEL-2 = tested on: SK-MEL-2
SK-MEL-5 = tested on: SK-MEL-5
SK-OV-3 = tested on: SK-OV-3
SN12C = tested on: SN12C
SNB-19 = tested on: SNB-19
SR = tested on: SR
SW-620 = tested on: SW-620
TK-10 = tested on: TK-10
U-251 = tested on: U-251
UACC-257 = tested on: UACC-257
UACC-62 = tested on: UACC-62
UO-31 = tested on: UO-31
XF498 = tested on: XF498
COLO 205 = tested on: COLO 205
HCC 2998 = tested on: HCC 2998
HCT-116 = tested on: HCT-116
HCT-15 = tested on: HCT-15
M14 = tested on: M14
M19-MEL = tested on: M19-MEL
NCI-H226 = tested on: NCI-H226
OVCAR-3 = tested on: OVCAR-3
OVCAR-5 = tested on: OVCAR-5
RPMI-8226 = tested on: RPMI-8226
SNB-75 = tested on: SNB-75
SNB-78 = tested on: SNB-78
KM-20L2 = tested on: KM-20L2

O=[N+]([O-])c1ccccc1C1SCc2nc3ccccc3n21 (stereo not given)
GI50 (786-0): > 100 µM (inactive) | GI50 (A498): 63 µM (inactive) | GI50 (A549): 52.4 µM (inactive) | GI50 (ACHN): 92.5 µM (inactive) | GI50 (CAKI-1): 78.3 µM (inactive) | GI50 (CCRF-CEM): 69.5 µM (inactive) | GI50 (DLD-1): 82 µM (inactive) | GI50 (DMS-114): 66.2 µM (inactive) | GI50 (DMS-273): > 100 µM (inactive) | GI50 (EKVX): 75 µM (inactive) | GI50 (HL-60): 74.6 µM (inactive) | GI50 (HOP-18): > 100 µM (inactive) | GI50 (HOP-62): 92 µM (inactive) | GI50 (HOP-92): 48 µM (inactive) | GI50 (HT-29): > 100 µM (inactive) | GI50 (IGROV-1): 36.9 µM (inactive) | GI50 (K562): 45.5 µM (inactive) | GI50 (KM12): > 100 µM (inactive) | GI50 (LOX IMVI): > 100 µM (inactive) | GI50 (LXFL 529): 92.9 µM (inactive) | GI50 (MOLT-4): 44 µM (inactive) | GI50 (Malme-3M): 22.1 µM (inactive) | GI50 (NCI-H23): 54.1 µM (inactive) | GI50 (NCI-H460): 78.9 µM (inactive) | GI50 (NCI-H522): > 100 µM (inactive) | GI50 (OVCAR-4): > 100 µM (inactive) | GI50 (OVCAR-8): > 100 µM (inactive) | GI50 (RXF 393): > 100 µM (inactive) | GI50 (RXF 631): 93.1 µM (inactive) | GI50 (SF-268): > 100 µM (inactive) | GI50 (SF-295): 59.2 µM (inactive) | GI50 (SF-539): > 100 µM (inactive) | GI50 (SK-MEL-28): > 100 µM (inactive) | GI50 (SK-MEL-2): > 100 µM (inactive) | GI50 (SK-MEL-5): 18.3 µM (inactive) | GI50 (SK-OV-3): > 100 µM (inactive) | GI50 (SN12C): 83.9 µM (inactive) | GI50 (SNB-19): > 100 µM (inactive) | GI50 (SR): 85.3 µM (inactive) | GI50 (SW-620): > 100 µM (inactive) | GI50 (TK-10): 79.1 µM (inactive) | GI50 (U-251): 70.6 µM (inactive) | GI50 (UACC-257): 46.7 µM (inactive) | GI50 (UACC-62): 54 µM (inactive) | GI50 (UO-31): 31.6 µM (inactive) | GI50 (XF498): 13.7 µM (inactive)

COc1ccccc1NC(=O)C1=C(C)NC(C)=C(C(=O)Nc2ccccc2OC)C1c1ccccc1[N+](=O)[O-]
GI50 (786-0): 17.4 µM (inactive) | GI50 (A549): > 100 µM (inactive) | GI50 (ACHN): 18.6 µM (inactive) | GI50 (CCRF-CEM): 18.9 µM (inactive) | GI50 (COLO 205): 16.9 µM (inactive) | GI50 (DLD-1): 16.9 µM (inactive) | GI50 (DMS-114): 15 µM (inactive) | GI50 (DMS-273): 17.9 µM (inactive) | GI50 (EKVX): 64.1 µM (inactive) | GI50 (HCC 2998): 18.7 µM (inactive) | GI50 (HCT-116): > 100 µM (inactive) | GI50 (HCT-15): 14.3 µM | GI50 (HL-60): 20.2 µM (inactive) | GI50 (HOP-18): 29.7 µM (inactive) | GI50 (HOP-62): 33.2 µM (inactive) | GI50 (HOP-92): 25.6 µM (inactive) | GI50 (HT-29): 18.7 µM (inactive) | GI50 (IGROV-1): 19.7 µM (inactive) | GI50 (K562): 20.6 µM (inactive) | GI50 (KM12): 16.8 µM (inactive) | GI50 (LOX IMVI): 15.5 µM (inactive) | GI50 (LXFL 529): 11.7 µM (inactive) | GI50 (M14): 16.1 µM (inactive) | GI50 (M19-MEL): 18.5 µM (inactive) | GI50 (MOLT-4): 14.3 µM (inactive) | GI50 (Malme-3M): 13.9 µM (inactive) | GI50 (NCI-H226): 15.2 µM (inactive) | GI50 (NCI-H23): 16.8 µM (inactive) | GI50 (NCI-H460): 16.1 µM (inactive) | GI50 (NCI-H522): 13.1 µM (inactive) | GI50 (OVCAR-3): 18.5 µM (inactive) | GI50 (OVCAR-4): 18.9 µM (inactive) | GI50 (OVCAR-5): 41 µM (inactive) | GI50 (OVCAR-8): 19.2 µM (inactive) | GI50 (RPMI-8226): 19.1 µM (inactive) | GI50 (RXF 393): > 100 µM (inactive) | GI50 (RXF 631): 19.6 µM (inactive) | GI50 (SF-268): 19.8 µM (inactive) | GI50 (SF-295): 32.4 µM (inactive) | GI50 (SF-539): 19.6 µM (inactive) | GI50 (SK-MEL-28): 17.5 µM (inactive) | GI50 (SK-MEL-2): 11.4 µM (inactive) | GI50 (SK-MEL-5): 24.8 µM (inactive) | GI50 (SK-OV-3): 26.9 µM (inactive) | GI50 (SN12C): 16.6 µM (inactive) | GI50 (SNB-75): 42.1 µM (inactive) | GI50 (SNB-78): 34.2 µM (inactive) | GI50 (SR): 11.5 µM (inactive) | GI50 (TK-10): 22.5 µM (inactive) | GI50 (U-251): 14.5 µM (inactive) | GI50 (UACC-257): 19 µM (inactive) | GI50 (UACC-62): 21.3 µM (inactive) | GI50 (UO-31): 19.4 µM (inactive) | GI50 (XF498): 22.2 µM (inactive)

CC1Oc2c(c(O)cc3oc(=O)cc(-c4ccccc4)c23)C(=O)C1C (stereo not given)
GI50 (A498): > 100 µM (inactive) | GI50 (ACHN): > 100 µM (inactive) | GI50 (CAKI-1): > 100 µM (inactive) | GI50 (CCRF-CEM): > 100 µM (inactive) | GI50 (COLO 205): > 100 µM (inactive) | GI50 (DLD-1): > 100 µM (inactive) | GI50 (DMS-273): > 100 µM (inactive) | GI50 (EKVX): > 100 µM (inactive) | GI50 (HCT-15): > 100 µM | GI50 (HL-60): > 100 µM (inactive) | GI50 (HOP-18): > 100 µM (inactive) | GI50 (HOP-92): > 100 µM (inactive) | GI50 (HT-29): > 10 µM (inactive) | GI50 (IGROV-1): > 100 µM (inactive) | GI50 (K562): > 100 µM (inactive) | GI50 (KM-20L2): > 100 µM (inactive) | GI50 (LOX IMVI): > 100 µM (inactive) | GI50 (LXFL 529): > 100 µM (inactive) | GI50 (M14): > 100 µM (inactive) | GI50 (MOLT-4): > 100 µM (inactive) | GI50 (Malme-3M): > 100 µM (inactive) | GI50 (NCI-H226): > 100 µM (inactive) | GI50 (NCI-H23): > 100 µM (inactive) | GI50 (NCI-H460): > 100 µM (inactive) | GI50 (NCI-H522): > 100 µM (inactive) | GI50 (OVCAR-3): > 100 µM (inactive) | GI50 (OVCAR-8): > 100 µM (inactive) | GI50 (RPMI-8226): > 100 µM (inactive) | GI50 (RXF 631): > 100 µM (inactive) | GI50 (SF-268): > 100 µM (inactive) | GI50 (SF-295): > 100 µM (inactive) | GI50 (SF-539): > 100 µM (inactive) | GI50 (SK-MEL-28): > 100 µM (inactive) | GI50 (SK-MEL-2): > 100 µM (inactive) | GI50 (SK-MEL-5): > 100 µM (inactive) | GI50 (SK-OV-3): > 100 µM (inactive) | GI50 (SN12C): > 100 µM (inactive) | GI50 (SNB-75): > 100 µM (inactive) | GI50 (SNB-78): > 100 µM (inactive) | GI50 (SW-620): > 100 µM (inactive) | GI50 (TK-10): > 100 µM (inactive) | GI50 (U-251): > 100 µM (inactive) | GI50 (UACC-62): > 100 µM (inactive) | GI50 (UO-31): > 100 µM (inactive) | GI50 (XF498): > 100 µM (inactive)
